This note sets out measurements from patent publication US7786175B2, “Anti-atherosclerosis composition containing carotenoids and method for inhibiting LDL oxidation” (Lycored Natural Products, priority 2001, dated 2010).

Test [1] deals with LDL. The test can be described thus: Copper ion-induced LDL oxidation, TBARS assay. The conditions noted are these: for effect on LDL oxidation (TBARS), in words: single compounds at low concentration mimicking Lyc-O-Mato: lycopene 10 μg/ml, vitamin E 2.5 μg/ml, β-carotene 0.4 μg/ml. The test is classed as biochemical. Here is the method: (§1) All studied compounds were dissolved in THF to a stock solution of 1 mg/ml. LDL was dialyzed for 24 hours against phosphate buffered-saline (PBS) prior to its oxidation to remove any EDTA that can interfere with the oxidation. LDL (100 μg protein/ml), was incubated in the absence (Control) or presence of increasing concentrations of each one of the studied compounds, as well as, in various combinations including 2, 3 or the 4 constituents at the desired natural distribution. LDL oxidation was induced by the addition of 5 μM of CuSO4, for 2 hours at 37° C. LDL oxidation was terminated by adding 1 mM Na2 EDTA and immediate refrigeration at 4° C. The extent of LDL oxidation was then determined by measuring the amount of thiobarbituric acid reactive substances (TBARS) and of lipid peroxides (PD) formed. Control LDL was supplemented with only THF.
(§2) LDL (100 μg of protein/mL) was pre-incubated for 30 minutes at 37° C. with increasing concentrations of crystalline pure lycopene, or with tomato oleoresin (at equivalent lycopene concentrations), followed by a further incubation for 2 hours at 37° C. in the presence of 5 μmol/L of CuSO4. LDL oxidation was measured by the TBARS (A) or by the lipid peroxides (B) assays respectively. Results are given as mean±SD (n=3). Addition of increasing concentrations of lycopene inhibited copper ion-induced LDL oxidation moderately, in a dose-dependent manner.

The subject of test [2] is LDL. The test can be described thus: Copper ion-induced LDL oxidation, lipid peroxides assay. It is filed as biochemical. To be noted: for effect on LDL oxidation (lipid peroxides), in words: single compounds at low concentration mimicking Lyc-O-Mato: lycopene 10 μg/ml, vitamin E 2.5 μg/ml, β-carotene 0.4 μg/ml. The procedure:
as §1, §2

[3] abbreviates: 50 μmol/L of lycopene, LDL 100 μg of protein/mL, 5 μmol/L CuSO4, 2 hours at 37° C.

Regarding `CC(C)=CCC/C(C)=C/C=C/C(C)=C/C=C/C(C)=C/C=C/C=C(C)/C=C/C=C(C)/C=C/C=C(\C)CCC=C(C)C` [lycopene], in the test on LDL [1] (setting [3]), the “maximal inhibition in TBARS formation” value was found to be 22%. The “effect on LDL oxidation (TBARS), in words” value (from here on “effect … (TBARS), in words”) with LDL [1] is “did not significantly affect LDL oxidation”. For the same molecule, the “maximal inhibition in lipid peroxides formation” value in the test on LDL [2] (setting [3]) is listed as 27%. Moreover, the “effect on LDL oxidation (lipid peroxides), in words” value with LDL [2] was “did not significantly affect LDL oxidation”.

Take `CC1=C(/C=C/C(C)=C/C=C/C(C)=C/C=C/C=C(C)/C=C/C=C(C)/C=C/C2=C(C)CCCC2(C)C)C(C)(C)CCC1` [β-carotene]: the “effect on LDL oxidation, in words” value in the test with LDL [1] (Example 5: β-carotene alone or in combination with vitamin E) was “did not affect at all LDL oxidation”. For the same molecule, the “effect … (TBARS), in words” value in the test with LDL [1] is reported as “did not significantly affect LDL oxidation”. The “effect on LDL oxidation (lipid peroxides), in words” value in the test with LDL [2] is listed as “did not significantly affect LDL oxidation”.

Regarding vitamin E, the “effect … (TBARS), in words” value with LDL [1] is “did not significantly affect LDL oxidation”. Further, the “effect on LDL oxidation (lipid peroxides), in words” value in the test with LDL [2] is listed as “did not significantly affect LDL oxidation”.
